The text below walks through data of paper PMC6263361 (Molecules, 2011).

Where two headings read alike, the source gives them in different places.

One experiment concerns the target T1, GST-E2F-4 (Homo sapiens, UniProt Q16254).
T1 construct: The 1239-bp cDNA fragment of E2F-4 was amplified from I.M.A.G.E cDNA clone; made in house; host or cells: E. coli BL21(DE3)pLysS
The experiment in a line: SPR interaction analysis with immobilized recombinant GST-E2F-4. Format: binding. Conditions: for affinity for E2F-4, fold weaker than that of etoposide: relative to etoposide. The source says: (§1) The gene encoding E2F-4 protein was engineered into an E. coli expression system as a GST fusion protein (GST-E2F-4) and purified by affinity interaction using glutathione Sepharose beads. The GST-E2F-4 was immobilized on a CM5 sensor chip using the same procedure as described for the synthetic ETBP.
The 1239-bp cDNA fragment of E2F-4 was amplified from I.M.A.G.E cDNA clone (clone ID CL0B005ZB12, Invitrogen) by PCR with the primers 5’-[…]-3’ (up) and 5’-[…]-3’ (down) and subcloned into pGEM-T vector (Promega). Following purification and digestion with EcoRI and XhoI, the cDNA fragment was subcloned into the expression vector pET28a(+) (Novagen). The construct was transformed into E. coli BL21(DE3)pLysS (Novagen). Heterologous gene expression was induced by addition of 0.1 mM isopropyl β-D-1-thiogaractopyranoside (IPTG). The culture was continued at 37 °C with vigorous shaking for 1 h. The cells were then harvested and suspended in binding buffer (0.5 M NaCl, 5 mM 2-mercaptoethanol in 50 mM sodium phosphate, pH 7.5). Following sonication and centrifugation the soluble fraction was obtained and purified using the FPLC instrument and GSTrap column (1 mL, GE Healthcare) and then subjected to kinetic analysis by SPR. The purified GST-E2F-4 in resulting fraction was detected by a SDS-PAGE followed by CBB staining or Western blotting using rabbit anti-GST (primary) and anti-rabbit IgG-AP conjugate (secondary) antibodies (Sigma-Aldrich) with BCIP/NBT solution.
(§2) Analysis of binding between etopside and synthetic ETBP or recombinant GST-E2F-4 was performed with a surface plasmon resonance (SPR) biosensor (Biacore®3000, GE Healthcare). The synthetic ETBP or protein dissolved in each buffer (ETBP16: 10 mM acetate buffer, pH 4.0−10% DMSO; ETBP10, HG102: 10 mM carbonate buffer, pH 8.5; protein: 10 mM acetate buffer, pH 4.0) was injected over a CM5 sensor chip at 10 µL/min and captured on the carboxymethyl dextran matrix via an amine coupling reaction. The surface was activated by injecting a solution containing 200 mM EDC and 50 mM NHS for 14 min. The protein or peptide was injected and the surface was then blocked by injecting 1 M ethanolamine at pH 8.5 for 14 min. […] BIAevaluation 3.2 software (GE Healthcare) was used to determine the kinetic parameters.

Experiment [1] concerns control peptide HG102 (SGVMLGDPN). Kind of experiment: SPR interaction analysis between etoposide and control peptide HG102. Conditions: etoposide 3.2-80 µM injected. Format: binding. On the procedure:
Synthetic ETBP16 or ETBP10 was immobilized on a CM5 censor chip by an amine coupling reaction. […] By contrast, no response was observed against a control peptide HG102 ([…]).
Analysis of binding between etopside and synthetic ETBP or recombinant GST-E2F-4 was performed with a surface plasmon resonance (SPR) biosensor (Biacore®3000, GE Healthcare). The synthetic ETBP or protein dissolved in each buffer (ETBP16: 10 mM acetate buffer, pH 4.0−10% DMSO; ETBP10, HG102: 10 mM carbonate buffer, pH 8.5; protein: 10 mM acetate buffer, pH 4.0) was injected over a CM5 sensor chip at 10 µL/min and captured on the carboxymethyl dextran matrix via an amine coupling reaction. The surface was activated by injecting a solution containing 200 mM EDC and 50 mM NHS for 14 min. The protein or peptide was injected and the surface was then blocked by injecting 1 M ethanolamine at pH 8.5 for 14 min. This reaction immobilized 1279 resonance units (RU) of ETBP16, 3400 RU of ETBP10, 350 RU of HG102, 11421 RU of GST-E2F-4, 4388 RU of GST, and 7500 RU of top II (usb). […] BIAevaluation 3.2 software (GE Healthcare) was used to determine the kinetic parameters.

The next experiment addresses GST (Schistosoma japonicum, UniProt P08515). Kind of experiment: SPR interaction analysis with immobilized GST tag alone. The settings on record: etoposide 2.5-100 µM injected. Type of experiment: binding. On the procedure:
as §1, §2

A further experiment addresses T2, E2F-4/DP1 (Homo sapiens, UniProt Q16254).
T2 construct: expressed in transfected cells; host or cells: CHO-K1
Kind of experiment: Luciferase reporter gene assay, E2F-4/DP1 expressing CHO-K1 cells. Format: cell-based. The settings on record: 15 h incubation, read-out: IC50 of reporter gene transcription, E2F-4/DP1. The source says:
(§3) E2F-4 functions as a transcription factor, forming a heterodimeric complex with DP via the DP binding domain (G86-I181) (Figure 9).
(§4) The vectors (pCMV-E2F-4, pCMV-DP1, pCMV-DP2) for the luciferase reporter gene assay were kindly provided by Dr. Junji Magae (Institute of Research and Innovation (IRI), Kashiwa, Chiba, Japan) The reporter gene plasmid (pGL3-GC box) was constructed by insertion of double stranded DNA with XhoI and HindIII site, which was generated by an annealing of 60 pmol of oligonucleotides 5’-[…]-3’ and 5’-[…]-3’ into pGL3 vector (Promega). Transfection was then performed using Lipofectamine 2000 (Invitrogen) in a 96-well format according to the manufacturer’s instructions (Invitrogen).
In general terms: In a reporter assay the amount or activity of a reporter protein is the signal.

A further experiment deals with T3, E2F-4/DP2 (Homo sapiens, UniProt Q16254).
T3 construct: expressed in transfected cells; host or cells: CHO-K1
T3 sequence (Q16254 whole entry, species assumed): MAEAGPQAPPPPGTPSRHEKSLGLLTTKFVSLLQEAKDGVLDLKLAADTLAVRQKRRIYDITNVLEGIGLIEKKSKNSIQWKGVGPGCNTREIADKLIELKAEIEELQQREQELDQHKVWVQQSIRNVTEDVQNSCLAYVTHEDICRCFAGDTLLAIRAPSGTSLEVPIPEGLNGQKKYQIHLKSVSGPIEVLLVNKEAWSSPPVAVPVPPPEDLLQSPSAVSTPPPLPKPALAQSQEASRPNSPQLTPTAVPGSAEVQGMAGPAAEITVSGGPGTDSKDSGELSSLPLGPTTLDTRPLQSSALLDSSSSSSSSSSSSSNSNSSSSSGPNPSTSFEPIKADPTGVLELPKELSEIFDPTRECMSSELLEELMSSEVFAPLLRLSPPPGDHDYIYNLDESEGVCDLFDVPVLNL
Kind of experiment: Luciferase reporter gene assay, E2F-4/DP2 expressing CHO-K1 cells. Conditions: 15 h incubation, read-out: IC50 of reporter gene transcription, E2F-4/DP2. Type of experiment: cell-based.
Description: as §3, §4

For the next experiment, the system named is CHO-K1 cells. Kind of experiment: MTS assay of cell proliferation. Format: cell-based. Conditions: concentrations used in the reporter assay; data not shown. On the technique in general: Tetrazolium dyes change colour on reduction, which living cells bring about.
The mark [2] stands for this setting: SPR, read-out: KD between GST-E2F-4 and each compound.

T1 sequence (Q16254 whole entry, the tested form may be a part): as the sequence (Q16254 whole entry, species assumed) above
T2 sequence (Q16254 whole entry, species assumed): as above
Sequence of GST (P08515 whole entry): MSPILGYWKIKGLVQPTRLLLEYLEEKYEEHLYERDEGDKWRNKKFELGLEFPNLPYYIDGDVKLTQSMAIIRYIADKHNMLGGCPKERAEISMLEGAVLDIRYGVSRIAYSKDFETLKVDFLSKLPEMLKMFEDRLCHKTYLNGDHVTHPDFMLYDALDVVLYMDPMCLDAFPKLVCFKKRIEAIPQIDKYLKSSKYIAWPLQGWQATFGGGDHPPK

By Kd is commonly meant the equilibrium constant for the complex coming apart. For the compound `COc1cc([C@@H]2c3cc4c(cc3[C@H](O)[C@H]3COC(=O)[C@H]23)OCO4)cc(OC)c1OC` [Podophyllotoxin, podophyllotoxin], the dissociation constant (Kd) at GST-E2F-4 came to 308 µM. The “affinity for E2F-4, fold weaker than that of etoposide” value on GST-E2F-4 (SPR) is reported as “approximately four”.
For the compound `COc1cc([C@@H]2c3cc4c(cc3[C@@H](O[C@@H]3O[C@@H]5CO[C@@H](C)O[C@H]5[C@H](O)[C@H]3O)[C@H]3COC(=O)[C@H]23)OCO4)cc(OC)c1O` [Etoposide], the “SPR response against control peptide HG102” value in experiment [1] is on record as “no response”. The Kd on GST-E2F-4 (setting [2]) worked out at 75 µM. Further, on GST, the “SPR response against GST tag alone” value is reported as “did not show any response”. Also, the figures for the IC50 on E2F-4/DP1 and at E2F-4/DP2 were 1.56 µM and 1.16 µM, respectively. Besides, in the experiment with CHO-K1 cells, the “effect in terms of cell growth in MTS assay” value was “no effect”.
As to `COc1cc([C@@H]2c3cc4c(cc3[C@@H](O[C@@H]3O[C@@H]5CO[C@@H](c6cccs6)O[C@H]5[C@H](O)[C@H]3O)[C@H]3COC(=O)[C@H]23)OCO4)cc(OC)c1O` [Teniposide, teniposide], the “affinity for E2F-4, fold weaker than that of etoposide” value on GST-E2F-4 (SPR) was “nine”. The Kd at GST-E2F-4 (setting [2]) came out at 654 µM.
In the case of `COc1cc(C(=O)O)cc(OC)c1O` [Syringic acid], at GST-E2F-4 (in the concentration range tested), the “SPR response against GST-E2F-4” value is on record as “no response”.
